Measurements as given in PubChem BioAssay AID330 (DTP/NCI, 2004).
Where “and” joins values, the source holds several entries; their conditions need not be identical. Equal values may be shown once. Toxic doses and inconclusive results are not listed. How the source made its calls: active means survival T/C of 150% or more; inactive means T/C below 125% in these data. Bridge positions count the residues as written; N and C are the ends. Square brackets hold non-standard residues; d marks the D form. Peptide text beside a SMILES is read from it. * marks the point of attachment. Cya = N[CH](CS(=O)(=O)O)C(=O)O; X6 = CC(C)CCCCCCCC(O)CC(=O)*; GABA = NCCCC(=O)O

Test system: P388 leukemia ip, CD2F1 mice, survival T/C
Test: NCI In Vivo Anticancer Drug Screen. Data for tumor model P388 Leukemia (intraperitoneal) in CD2F1 (CDF1) mice
Settings: endpoint: median survival time, higher = longer survival
Outline: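 Mice carrying the transplanted tumor received test compound or vehicle. Survival was recorded in each group, and the value is the treated-group measurement divided by that of the vehicle-treated control group.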

[1] = dose: 60.0 mg/kg/injection, schedule: Q01DX005 (ip), vehicle: Klucel (hydroxypropylcellulose) (HPC)
[2] = dose: 120.0 mg/kg/injection, schedule: Q01DX005 (ip), vehicle: Klucel (hydroxypropylcellulose) (HPC)
[3] = dose: 240.0 mg/kg/injection, schedule: Q01DX005 (ip), vehicle: Klucel (hydroxypropylcellulose) (HPC)
[4] = dose: 50.0 mg/kg/injection, schedule: Q01DX009 (ip), vehicle: saline with Tween-80
[5] = dose: 100.0 mg/kg/injection, schedule: Q01DX009 (ip), vehicle: saline with Tween-80
[6] = dose: 200.0 mg/kg/injection, schedule: Q01DX009 (ip), vehicle: saline with Tween-80
[7] = dose: 30.0 mg/kg/injection, schedule: Q01DX005 (ip), vehicle: Klucel (hydroxypropylcellulose) (HPC)
[8] = dose: 100.0 mg/kg/injection, schedule: Q04DX003 (ip), vehicle: saline with Tween-80
[9] = dose: 200.0 mg/kg/injection, schedule: Q04DX003 (ip), vehicle: saline with Tween-80
[10] = dose: 400.0 mg/kg/injection, schedule: Q04DX003 (ip), vehicle: saline with Tween-80
[11] = dose: 60.0 mg/kg/injection, schedule: Q01DX005 (ip), vehicle: saline
[12] = dose: 120.0 mg/kg/injection, schedule: Q01DX005 (ip), vehicle: saline
[13] = dose: 50.0 mg/kg/injection, schedule: Q01DX005 (ip), vehicle: Klucel (hydroxypropylcellulose) (HPC)
[14] = dose: 100.0 mg/kg/injection, schedule: Q01DX005 (ip), vehicle: Klucel (hydroxypropylcellulose) (HPC)
[15] = dose: 200.0 mg/kg/injection, schedule: Q01DX005 (ip), vehicle: Klucel (hydroxypropylcellulose) (HPC)

Measured: T/C

COc1cccc(-c2c(C#N)c(=O)n(C)c3nncn23)c1
inactive: dose: 100.0 mg/kg/injection, schedule: Q01DX001 (ip), vehicle: saline with Tween-80 97 % of control | dose: 200.0 mg/kg/injection, schedule: Q01DX001 (ip), vehicle: saline with Tween-80 94 % of control | dose: 400.0 mg/kg/injection, schedule: Q01DX001 (ip), vehicle: saline with Tween-80 91 % of control

Cn1ncc(N)nc1=S
inactive: dose: 50.0 mg/kg/injection, schedule: Q01DX005 (ip), vehicle: suspension in saline 101 % of control | dose: 100.0 mg/kg/injection, schedule: Q01DX005 (ip), vehicle: suspension in saline 97 % of control | dose: 200.0 mg/kg/injection, schedule: Q01DX005 (ip), vehicle: suspension in saline 105 % of control

CC(=O)Nc1cc(N)c2c(c1)CCCC2=O
inactive: [1] 97 % of control | [2] 96 % of control | [3] 90 % of control

CCc1nc2nc(C)cc(C)n2n1
inactive: dose: 25.0 mg/kg/injection, schedule: Q01DX009 (ip), vehicle: saline with Tween-80 100 % of control | [4] 97 % of control | [5] 103 % of control

CCCCCNCC(=O)O
inactive: dose: 50.0 mg/kg/injection, schedule: Q01DX005 (ip), vehicle: saline 91 % of control | dose: 100.0 mg/kg/injection, schedule: Q01DX005 (ip), vehicle: saline 96 % of control

O=C1C=C(NCCC2CCCN3CCCCC23)C(=O)c2ccccc21 (stereo unspecified)
inactive: dose: 12.5 mg/kg/injection, schedule: Q01DX001 (ip), vehicle: Klucel (hydroxypropylcellulose) (HPC) 98 % of control | dose: 25.0 mg/kg/injection, schedule: Q01DX001 (ip), vehicle: Klucel (hydroxypropylcellulose) (HPC) 95 % of control | dose: 50.0 mg/kg/injection, schedule: Q01DX001 (ip), vehicle: Klucel (hydroxypropylcellulose) (HPC) 100 % of control

C[N+](C)(C)CCc1ccc2ccccc2c1
inactive: dose: 25.0 mg/kg/injection, schedule: Q04DX002 (ip), vehicle: saline + alcohol 96 % of control | dose: 50.0 mg/kg/injection, schedule: Q04DX002 (ip), vehicle: saline + alcohol 92 % of control | dose: 100.0 mg/kg/injection, schedule: Q04DX002 (ip), vehicle: saline + alcohol 106 % of control and 108 % of control

Cc1oc(-c2ccccc2F)nc1C(N)=O
inactive: [4] 96 % of control | [5] 95 % of control | [6] 91 % of control

C=CCN(NC(=O)c1ccccc1)C(=O)c1ccccc1
inactive: dose: 100.0 mg/kg/injection, schedule: Q04DX003 (ip), vehicle: saline 105 % of control | dose: 200.0 mg/kg/injection, schedule: Q04DX003 (ip), vehicle: saline 100 % of control | dose: 400.0 mg/kg/injection, schedule: Q04DX003 (ip), vehicle: saline 110 % of control

COC(=O)C(Cc1cnc2nc(N)nc(N)c2n1)C(=O)OC
inactive: dose: 25.0 mg/kg/injection, schedule: Q01DX009 (ip), vehicle: distilled water + Tween-80 104 % of control | dose: 50.0 mg/kg/injection, schedule: Q01DX009 (ip), vehicle: distilled water + Tween-80 104 % of control | dose: 100.0 mg/kg/injection, schedule: Q01DX009 (ip), vehicle: distilled water + Tween-80 122 % of control

C=C(C)c1nc(N(C)C)nc(N(C)C)n1
inactive: [7] 98 % of control | [1] 88 % of control and 95 % of control | [2] 88 % of control

CC1CN(Cc2cc(C(C)(C)c3cc(Cl)c(O)c(CN4CC(C)OC(C)C4)c3)cc(Cl)c2O)CC(C)O1 (stereo unspecified)
inactive: dose: 12.5 mg/kg/injection, schedule: Q01DX005 (ip), vehicle: saline with Tween-80 101 % of control | dose: 25.0 mg/kg/injection, schedule: Q01DX005 (ip), vehicle: saline with Tween-80 101 % of control | dose: 50.0 mg/kg/injection, schedule: Q01DX005 (ip), vehicle: saline with Tween-80 87 % of control and 91 % of control

CCCCCCCCCCCCCCCCCCCCCC(O)(CC)CC
inactive: [5] 100 % of control | [8] 100 % of control | [6] 109 % of control | [9] 100 % of control | dose: 400.0 mg/kg/injection, schedule: Q01DX009 (ip), vehicle: saline with Tween-80 100 % of control | [10] 110 % of control

O=S(=O)(CS(=O)(=O)c1ccccc1Br)c1ccccc1Br
inactive: [7] 100 % of control | [1] 100 % of control | [2] 100 % of control | [3] 100 % of control

O=C1OC(CO)CC1(O)CO (stereo unspecified)
inactive: [11] 99 % of control | [12] 105 % of control | dose: 240.0 mg/kg/injection, schedule: Q01DX005 (ip), vehicle: saline 104 % of control

O=C(/C(=C/c1ccccc1)c1ccc(Cl)cc1)c1ccccc1
inactive: [8] 116 % of control | [9] 100 % of control | [10] 103 % of control

O=C1NC2C(=CC(O)C(O)C2O)c2cc3c(cc21)OCO3 (stereo unspecified)
inactive: dose: 3.12 mg/kg/injection, schedule: Q01DX009 (ip), vehicle: saline + alcohol 102 % of control | dose: 6.25 mg/kg/injection, schedule: Q01DX005 (ip), vehicle: saline + alcohol 111 % of control | dose: 6.25 mg/kg/injection, schedule: Q01DX009 (ip), vehicle: saline + alcohol 102 % of control | dose: 12.5 mg/kg/injection, schedule: Q01DX005 (ip), vehicle: saline + alcohol 111 % of control | dose: 25.0 mg/kg/injection, schedule: Q01DX005 (ip), vehicle: saline + alcohol 105 % of control | dose: 25.0 mg/kg/injection, schedule: Q01DX009 (ip), vehicle: saline + alcohol 101 % of control | dose: 50.0 mg/kg/injection, schedule: Q01DX005 (ip), vehicle: saline + alcohol 105 % of control

O=c1oc2c(c3c1CCCC3)c(=O)[nH]c1ccccc12
inactive: [13] 111 % of control | [14] 116 % of control | [15] 115 % of control

CCC[CH2][Sn]([CH2]CCC)([O]S(=O)c1ccccc1)[O]S(=O)c1ccccc1 (stereo unspecified)
inactive: dose: 3.12 mg/kg/injection, schedule: Q01DX001 (ip), vehicle: saline with Tween-80 103 % of control | dose: 6.25 mg/kg/injection, schedule: Q01DX001 (ip), vehicle: saline with Tween-80 119 % of control

CC(C)CCCCCCCC(O)CC(=O)NC(CS(=O)(=O)O)C(=O)NC(CC(C)C)C(=O)NCCCC(=O)NC(Cc1cnc[nH]1)C(=O)NC(C)C(=O)NC1C(=O)NC(C(C)O)C(=O)NC(Cc2cnc[nH]2)C(=O)NC(C)C(=O)NC(C(C)O)C(=O)OC1C (stereo unspecified) (X6-[Cya]L[GABA]HATTHAT; ester 6-C; configuration not given here)
inactive: dose: 0.38 mg/kg/injection, schedule: Q01DX005 (ip), vehicle: other 95 % of control | dose: 0.75 mg/kg/injection, schedule: Q01DX005 (ip), vehicle: other 102 % of control | dose: 1.5 mg/kg/injection, schedule: Q01DX005 (ip), vehicle: other 100 % of control | dose: 3.0 mg/kg/injection, schedule: Q01DX005 (ip), vehicle: other 100 % of control | dose: 6.0 mg/kg/injection, schedule: Q01DX005 (ip), vehicle: other 99 % of control

O=S1(=O)CC23C=CC=CC2(CCCC3)C1Cl (stereo unspecified)
inactive: dose: 12.5 mg/kg/injection, schedule: Q01DX005 (ip), vehicle: Klucel (hydroxypropylcellulose) (HPC) 93 % of control | dose: 25.0 mg/kg/injection, schedule: Q01DX005 (ip), vehicle: Klucel (hydroxypropylcellulose) (HPC) 89 % of control | [13] 91 % of control

CC(=O)Oc1ccc(OC(C)=O)c2c1CC=CC2
inactive: [13] 105 % of control | [14] 105 % of control | [15] 100 % of control

OC1CC2CCC(C1)N2 (stereo unspecified)
inactive: [11] 100 % of control | [12] 96 % of control
